From patent US7951385B2, “Probiotic strain and antimicrobial peptide derived therefrom” (Cipla Medpro Research and Development (Pty) Ltd., priority 2006, dated 2011)
Bridge positions count the residues as written; N and C are the ends. Square brackets hold non-standard residues; d marks the D form. Peptide text beside a SMILES is read from it. * marks the point of attachment. Ileψ(thiazoline)Cys = CC[C@H](C)[C@H](N)C1=N[C@H](C(=O)*)CS1; dOrn = NCCC[C@@H](N)C(=O)O

Key:
[1] = test system: Pseudomonas sp. isolated from infected middle-ear fluid; experiment: Activity on paper disks and comparison with antibiotics (inhibition zones); assay type: cell-based; settings: Ampicillin 10 μg, Bacitracin 10 units, Chloramphenicol 30 μg, Erythromycin 15 μg, Tetracycline 30 μg, peptide on paper disk
Method: Activity was tested against a Pseudomonas sp. isolated from infected middle-ear fluid.

[2] = test system: strain ST4SA; experiment: Antibiotic resistance of strain ST4SA (antibiotic discs, Oxoid); assay type: cell-based, Enterococcus mundtii
[3] = test system: strain ST4SA; experiment: Resistance of E. mundtii ST4 against antibiotics and anti-inflammatory drugs; assay type: cell-based, Enterococcus mundtii; settings: Ibuprofen 5, Aspirin 5, Promoxil 100, Cipadur 50, Cefasyn 100, Roxibidd 30, Doximal 20, Ciploxx 100, Utin 80, Rheugesic 4, Coxflam 1.5, K-fenak 5, Preflam 3 mg/ml
[4] = test system: Lactobacillus sakei DSM 20017; experiment: Blocking of the Lipid II target site with vancomycin; assay type: cell-based; settings: L. sakei DSM 20017, FIG. 26
Source text: To test this hypothesis, the Lipid II target site of Lactobacillus sakei DSM 20017 (sensitive to peptide ST 4SA) was blocked with vancomycin (see schematic presentation, FIG. 26). Vancomycin adheres to the amino acid side chain of the Lipid II molecule, which would, theoretically, prevent peptide ST4SA from binding to the same site (that is if Lipid II acts as receptor). […] The fact that peptide ST4SA binds to more than one anchoring site on the sensitive cell may explain why it has such a broad spectrum of antimicrobial activity (inhibitory to Gram-positive and Gram-negative bacteria).

[5] = test system: strain ST4SA; experiment: Growth of strain ST4SA in the presence of TMP-SMX and Metronidazole; assay type: cell-based, Enterococcus mundtii; settings: for Number of viable cells of strain ST4SA: NAN Palargon, 18 h, 37° C., control 1 × 10^8
Method: Children with HIV/AIDS are treated with Trimethoprim-sulfamethoxazole (TMP-SMX) and/or Metronidazole to prevent diarrhea.

[6] = Pseudomonas, read-out: Diameter of inhibition zones

Molecule	Inhibition zone of antibiotic on ST4 [2]	Resistance of strain ST4SA to antibiotic [2]	also measured
CC1(C)S[C@@H]2[C@H](NC(=O)[C@H](N)c3ccccc3)C(=O)N2[C@H]1C(=O)O [Ampicillin]	+++ (+++ = inhibition zone, diameter larger than 17 mm)		zone of inhibition at 10 µg/disc [1, 6]: 24 mm
Cc1nnc(SCC2=C(C(=O)O)N3C(=O)[C@@H](NC(=O)Cn4cnnn4)[C@H]3SC2)s1 [Cephazolin]	+ (+ = inhibition zone, diameter 1 to 11 mm)		
CN(C)[C@@H]1C(O)=C(C(N)=O)C(=O)[C@@]2(O)C(O)=C3C(=O)c4c(O)cccc4[C@@](C)(O)[C@H]3C[C@@H]12 [Tetracycline]	+++ (+++ = inhibition zone, diameter larger than 17 mm)		zone of inhibition at 30 µg/disc [1, 6]: 35 mm
O=C(N[C@H](CO)[C@H](O)c1ccc([N+](=O)[O-])cc1)C(Cl)Cl [Chloramphenicol]	+++ (+++ = inhibition zone, diameter larger than 17 mm)		zone of inhibition at 30 µg/disc [1, 6]: 28 mm
CC(C)Cc1ccc(C(C)C(=O)O)cc1 (stereo not shown) [Ibuprofen]			Inhibition zone of medicament on Strain ST4SA [3]: ++ (++ = diameters between 12 mm and 16 mm)
Nisin [reference compound]			Effect on target cells after blocking Lipid II with vancomycin [4]: prevented the binding of Nisin to the Lipid II target site
CO[C@@H]1[C@@H](OC(N)=O)[C@@H](O)[C@H](Oc2ccc3c(O)c(NC(=O)c4ccc(O)c(CC=C(C)C)c4)c(=O)oc3c2C)OC1(C)C [Novobiocin]	+++ (+++ = inhibition zone, diameter larger than 17 mm)		
CC[C@H]1OC(=O)[C@H](C)[C@@H](O[C@H]2C[C@@](C)(OC)[C@@H](O)[C@H](C)O2)[C@H](C)[C@@H](O[C@@H]2O[C@H](C)C[C@H](N(C)C)[C@H]2O)[C@](C)(O)C[C@@H](C)C(=O)[C@H](C)[C@@H](O)[C@]1(C)O [Erythromycin]	+++ (+++ = inhibition zone, diameter larger than 17 mm)		Diameter of inhibition zones [1]: No zone
C[C@@H]1[C@H](O)[C@@H](C)/C=C/C=C/CC/C=C/C=C/C=C/C=C/C(O[C@H]2O[C@H](C)[C@@H](O)[C@H](N)[C@@H]2O)CC2O[C@](O)(CC(O)C(O)CCC(O)CC(O)CC(O)CC(=O)O[C@H]1C)CC(O)C2C(=O)O (stereo partly shown) [Nystatin]	−	resistant	
O=C(O)c1cn(C2CC2)c2cc(N3CCNCC3)c(F)cc2c1=O [Ciprofloxzcin]	+++ (+++ = inhibition zone, diameter larger than 17 mm)		
[H]/N=C(/N)N[C@H]1[C@H](O)[C@@H](O)[C@H](O[C@@H]2O[C@@H](C)[C@](O)(C=O)[C@H]2O[C@@H]2O[C@@H](CO)[C@H](O)[C@@H](O)[C@@H]2NC)[C@@H](N/C(N)=N\[H])[C@@H]1O [Streptomycin]	−	resistant	
CC(=O)Oc1ccccc1C(=O)O [Aspirin]			Inhibition zone of medicament on Strain ST4SA [3]: + (+ = diameters between 1 mm and 11 mm)
CC[C@H](C)[C@H](N)C1=N[C@H](C(=O)N[C@@H](CC(C)C)C(=O)N[C@H](CCC(=O)O)C(=O)N[C@H](C(=O)N[C@H]2CCCCNC(=O)[C@H](CC(N)=O)NC(=O)[C@@H](CC(=O)O)NC(=O)[C@H](Cc3cnc[nH]3)NC(=O)[C@@H](Cc3ccccc3)NC(=O)[C@H]([C@@H](C)CC)NC(=O)[C@@H](CCCN)NC2=O)[C@@H](C)CC)CS1 [Bacitracin] ({Ileψ(thiazoline)Cys}-L[dE]IK[dOrn]I[dF]H[dD]N; lactam 4-C)	++ (++ = inhibition zone, diameter 12 to 16 mm)		Diameter of inhibition zones [1]: 10 mm
COc1cccc(OC)c1C(=O)N[C@@H]1C(=O)N2[C@@H]1SC(C)(C)[C@@H]2C(=O)O [Methicillin]	−	resistant	
Trimethoprim-sulfamethoxazole [TMP-SMX]			Decrease of cell numbers of strain ST4SA [5]: four; Number of viable cells of strain ST4SA ([5]; TMP-SMX 20/100 mg): 7 × 10^4; Number of viable cells of strain ST4SA ([5]; TMP-SMX 40/200 mg): 8 × 10^4; Number of viable cells of strain ST4SA ([5]; TMP-SMX 60/300 mg): 8 × 10^4; Number of viable cells of strain ST4SA ([5]; TMP-SMX 80/400 mg): 1.8 × 10^4
CO[C@H]1/C=C/O[C@@]2(C)Oc3c(C)c(O)c4c(O)c(c(/C=N/N5CCN(C)CC5)c(O)c4c3C2=O)NC(=O)/C(C)=C\C=C\[C@H](C)[C@H](O)[C@@H](C)[C@@H](O)[C@@H](C)[C@H](OC(C)=O)[C@@H]1C [Rifampicin]	+++ (+++ = inhibition zone, diameter larger than 17 mm)		
Neomycin	−	resistant	
Penicillin	+++ (+++ = inhibition zone, diameter larger than 17 mm)		
Cc1ncc([N+](=O)[O-])n1CCO [Metronidazole]	−	resistant	Decrease of cell numbers of strain ST4SA [5]: four; Number of viable cells of strain ST4SA ([5]; Metronidazole 50 mg): 1.3 × 10^4; Number of viable cells of strain ST4SA ([5]; Metronidazole 100 mg): 6 × 10^4; Number of viable cells of strain ST4SA ([5]; Metronidazole 200 mg): 3 × 10^4
CN[C@H](CC(C)C)C(=O)N[C@H]1C(=O)N[C@@H](CC(N)=O)C(=O)N[C@H]2C(=O)N[C@H]3C(=O)N[C@H](C(=O)N[C@H](C(=O)O)c4cc(O)cc(O)c4-c4cc3ccc4O)[C@H](O)c3ccc(c(Cl)c3)Oc3cc2cc(c3O[C@@H]2O[C@H](CO)[C@@H](O)[C@H](O)[C@H]2O[C@H]2C[C@](C)(N)[C@H](O)[C@H](C)O2)Oc2ccc(cc2Cl)[C@H]1O [Vancomycin]	++ (++ = inhibition zone, diameter 12 to 16 mm)		
CC1COc2c(N3CCN(C)CC3)c(F)cc3c(=O)c(C(=O)O)cn1c23 (stereo not shown) [Oflaxacin]	++ (++ = inhibition zone, diameter 12 to 16 mm)		
Cc1onc(-c2ccccc2Cl)c1C(=O)N[C@@H]1C(=O)N2[C@@H]1SC(C)(C)[C@@H]2C(=O)O [Cloxacillin]	−	resistant	
Cc1onc(-c2ccccc2)c1C(=O)N[C@@H]1C(=O)N2[C@@H]1SC(C)(C)[C@@H]2C(=O)O [Oxacillin]	−	resistant	
